Assay results taken from ChEMBL document CHEMBL1201862, “PubChem BioAssay data set” (2004).
Structures can show the parent of a compound that is named as a salt.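 Protocol summary: plate cells (96-well), add compound at 5 concentrations, incubate 48 h, interpolate endpoints linearly. At the GI50, growth is halved.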 The source made the active and inactive calls. Cut-off read from the data, not from the text of the source: active = GI50 up to about 1.1 µM and inactive = higher.

Tests used:
Experiment in all cases: NCI tumour cell line growth inhibition, 48 h
786-0 = tested on: 786-0
A549 = tested on: A549
CAKI-1 = tested on: CAKI-1
CCRF-CEM = tested on: CCRF-CEM
COLO 205 = tested on: COLO 205
DLD-1 = tested on: DLD-1
DMS-114 = tested on: DMS-114
DMS-273 = tested on: DMS-273
EKVX = tested on: EKVX
HCC 2998 = tested on: HCC 2998
HCT-116 = tested on: HCT-116
HOP-62 = tested on: HOP-62
HOP-92 = tested on: HOP-92
HT-29 = tested on: HT-29
IGROV-1 = tested on: IGROV-1
K562 = tested on: K562
KM12 = tested on: KM12
LOX IMVI = tested on: LOX IMVI
LXFL 529 = tested on: LXFL 529
M14 = tested on: M14
M19-MEL = tested on: M19-MEL
MOLT-4 = tested on: MOLT-4
Malme-3M = tested on: Malme-3M
NCI-H226 = tested on: NCI-H226
NCI-H23 = tested on: NCI-H23
NCI-H460 = tested on: NCI-H460
NCI-H522 = tested on: NCI-H522
OVCAR-3 = tested on: OVCAR-3
OVCAR-4 = tested on: OVCAR-4
OVCAR-5 = tested on: OVCAR-5
OVCAR-8 = tested on: OVCAR-8
RXF 393 = tested on: RXF 393
SF-268 = tested on: SF-268
SF-295 = tested on: SF-295
SF-539 = tested on: SF-539
SK-MEL-28 = tested on: SK-MEL-28
SK-MEL-2 = tested on: SK-MEL-2
SK-MEL-5 = tested on: SK-MEL-5
SK-OV-3 = tested on: SK-OV-3
SN12C = tested on: SN12C
SNB-19 = tested on: SNB-19
SNB-75 = tested on: SNB-75
SNB-78 = tested on: SNB-78
SR = tested on: SR
SW-620 = tested on: SW-620
TK-10 = tested on: TK-10
U-251 = tested on: U-251
UACC-62 = tested on: UACC-62
UO-31 = tested on: UO-31
XF498 = tested on: XF498
A498 = tested on: A498
ACHN = tested on: ACHN
HL-60 = tested on: HL-60
HOP-18 = tested on: HOP-18
KM-20L2 = tested on: KM-20L2
MDA-MB-435 = tested on: MDA-MB-435
UACC-257 = tested on: UACC-257

Measured: GI50

CCN1C(=O)C/C(=C\C(C)=O)Nc2ccccc21
active: SN12C 0.166 µM
inactive: 786-0 > 100 µM | A549 > 100 µM | CAKI-1 > 100 µM | CCRF-CEM > 100 µM | COLO 205 > 100 µM | DLD-1 18.9 µM | DMS-114 > 100 µM | DMS-273 > 100 µM | EKVX > 100 µM | HCC 2998 > 100 µM | HCT-116 > 100 µM | HOP-62 > 100 µM | HOP-92 > 100 µM | HT-29 > 100 µM | IGROV-1 > 100 µM | K562 > 100 µM | KM12 > 100 µM | LOX IMVI > 100 µM | LXFL 529 > 100 µM | M14 > 100 µM | M19-MEL > 100 µM | MOLT-4 > 100 µM | Malme-3M > 100 µM | NCI-H226 > 100 µM | NCI-H23 > 100 µM | NCI-H460 > 100 µM | NCI-H522 > 100 µM | OVCAR-3 > 100 µM | OVCAR-4 > 100 µM | OVCAR-5 > 100 µM | OVCAR-8 > 100 µM | RXF 393 > 100 µM | SF-268 > 100 µM | SF-295 > 100 µM | SF-539 > 100 µM | SK-MEL-28 > 100 µM | SK-MEL-2 > 100 µM | SK-MEL-5 10 µM | SK-OV-3 > 100 µM | SNB-19 > 100 µM | SNB-75 21.5 µM | SNB-78 > 100 µM | SR > 100 µM | SW-620 > 100 µM | TK-10 > 100 µM | U-251 > 100 µM | UACC-62 > 100 µM | UO-31 > 100 µM | XF498 > 100 µM

O=C1c2c(O)ccc(O)c2C(=O)c2c(NCCNCCO)ccc(NCCNCCO)c21 [MITOXANTRONE HYDROCHLORIDE]
inactive: UACC-257 1.89 µM
active: A498 0.0619 µM | ACHN 0.0115 µM | CAKI-1 0.00899 µM | CCRF-CEM 0.00598 µM | DLD-1 0.491 µM | DMS-273 0.0119 µM | HCT-116 0.0553 µM | HL-60 0.0103 µM | HOP-18 0.126 µM | HOP-92 0.0177 µM | K562 0.118 µM | KM-20L2 0.384 µM | MDA-MB-435 0.471 µM | NCI-H226 0.0153 µM | SNB-78 0.204 µM | SR 0.00764 µM | TK-10 0.423 µM | U-251 0.0091 µM | XF498 0.0136 µM
